One experiment deals with HCT116-mock-RNA-KO. The experiment can be described thus: Cell killing in HCT116 isogenic pair (Cell Titer-Glo viability), mock knock-out cells with MTAP wildtype genotype. In kind it is cell-based, human. Particulars: Homo sapiens, HCT-116, 144 h, 6 days incubation, 0-10 μM. A digest of the protocol: (§1)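 Viability was read by CellTiter-Glo luminescence after 6 days of compound treatment (0–10 μM final, 37° C, 5% CO2), and IC50 values were fitted. The isogenic HCT116 pair, MTAP-KO clone versus mock-KO MTAP-wildtype, was grown in RPMI 1640 plus 10% FBS and seeded the day before.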
(In general: Cellular ATP, detected with luciferase, serves as a proxy for viable cell number.)

A further experiment has as its system HCT116-MTAP-KO. Description: Cell killing in HCT116 isogenic pair (Cell Titer-Glo viability), MTAP knock-out cells. Particulars: Homo sapiens, HCT-116, 144 h, 6 days incubation, 0-10 μM, * = more than 50% viability inhibition at tested concentration without a full curve. It is filed as cell-based, human. A digest of the protocol:
as §1

Molecules are shown by their SMILES.

Regarding `Nc1nc2cc(C(=O)N(Cc3ncccn3)Cc3ncc(C(F)(F)F)cc3F)[nH]c2c2c1COC2` [Example 42, 5-amino-N-((3-fluoro-5-(trifluoromethyl)pyridin-2-yl)methyl)-N-(pyrimidin-2-ylmethyl)-6,8-dihydro-1H-furo[3,4-d]pyrrolo[3,2-b]pyridine-2-carboxamide], the IC50 (as a rule, the concentration at which inhibition is half-maximal) in the experiment on HCT116-mock-RNA-KO was found to be 2500 nM; with HCT116-MTAP-KO it was 24 nM.

As to `C[C@@H](c1ncccn1)N(Cc1ccc(-c2c(F)cccc2F)cn1)C(=O)c1cc2nc(N)c3c(c2[nH]1)COC3` [Example 17, (S)-5-amino-N-((5-(2,6-difluorophenyl)pyridin-2-yl)methyl)-N-(1-(pyrimidin-2-yl)ethyl)-6,8-dihydro-1H-furo[3,4-d]pyrrolo[3,2-b]pyridine-2-carboxamide], the IC50 in the experiment with HCT116-mock-RNA-KO turned out to be 1050 nM; with HCT116-MTAP-KO it was 8.2 nM.

With `CC(C)[C@@H](C)N(Cc1ncc(C2CC2)cc1F)C(=O)c1cc2nc(N)c3c(c2[nH]1)COC3` [Example 70, (R)-5-amino-N-((5-cyclopropyl-3-fluoropyridin-2-yl)methyl)-N-(3-methylbutan-2-yl)-6,8-dihydro-1H-furo[3,4-d]pyrrolo[3,2-b]pyridine-2-carboxamide], the IC50 was 1180 nM in the experiment with HCT116-mock-RNA-KO and 12 nM with HCT116-MTAP-KO.

For the compound `Nc1nc2cc(C(=O)N(Cc3ccc(-c4c(F)cncc4F)cn3)[C@@H]3CCCc4cccnc43)[nH]c2c2c1COC2` [Example 1, (R)-5-amino-N-((3′,5′-difluoro-[3,4′-bipyridin]-6-yl)methyl)-N-(5,6,7,8-tetrahydroquinolin-8-yl)-6,8-dihydro-1H-furo[3,4-d]pyrrolo[3,2-b]pyridine-2-carboxamide], the IC50 in the experiment with HCT116-mock-RNA-KO is 4.6 nM; in the experiment with HCT116-MTAP-KO, under 1.5 nM.

Take `CN(C(=O)c1cc2nc(N)c3c(c2[nH]1)COC3)[C@H]1COCc2cc(Br)ccc21` [Example 64, (R)-5-amino-N-(7-bromoisochroman-4-yl)-N-methyl-6,8-dihydro-1H-furo[3,4-d]pyrrolo[3,2-b]pyridine-2-carboxamide]: the half-inhibitory concentration (IC50) is over 10000 nM with HCT116-mock-RNA-KO and 362 nM in the experiment on HCT116-MTAP-KO.

Regarding `C[C@@H](c1ccc(Br)cc1F)N(C)C(=O)c1cc2nc(N)c3c(c2[nH]1)COC3` [Example 138, (S)-5-amino-N-(1-(4-bromo-2-fluorophenyl)ethyl)-N-methyl-6,8-dihydro-1H-furo[3,4-d]pyrrolo[3,2-b]pyridine-2-carboxamide], the IC50 in the experiment on HCT116-mock-RNA-KO worked out at 3240 nM; in the experiment on HCT116-MTAP-KO, 913 nM.

Turning to `CCN(C(=O)c1cc2nc(N)c3c(c2[nH]1)COC3)[C@@H](C)c1ccc(C2CC2)cc1F` [Example 178, (S)-5-amino-N-(1-(4-cyclopropyl-2-fluorophenyl)ethyl)-N-ethyl-6,8-dihydro-1H-furo[3,4-d]pyrrolo[3,2-b]pyridine-2-carboxamide], the half-inhibitory concentration (IC50) with HCT116-mock-RNA-KO worked out at 3270 nM; in the experiment on HCT116-MTAP-KO it was 1040 nM.

For the compound `C[C@@H]1OC[C@@H](N(C)C(=O)c2cc3nc(N)c4c(c3[nH]2)COC4)c2ccc(C(F)(F)F)cc21` [Example 59, 5-amino-N-methyl-N-((1S,4S)-1-methyl-7-(trifluoromethyl)isochroman-4-yl)-6,8-dihydro-1H-furo[3,4-d]pyrrolo[3,2-b]pyridine-2-carboxamide], the results for the half-maximal inhibitory concentration (IC50) with HCT116-mock-RNA-KO and with HCT116-MTAP-KO were over 10000 nM and 110 nM, respectively.

`Nc1nc2cc(C(=O)N(Cc3c(F)cccc3F)Cc3c(F)cccc3F)[nH]c2c2c1COC2` [Example 3, 5-amino-N,N-bis(2,6-difluorobenzyl)-6,8-dihydro-1H-furo[3,4-d]pyrrolo[3,2-b]pyridine-2-carboxamide]: the IC50 in the experiment on HCT116-mock-RNA-KO came to 221 nM; in the experiment on HCT116-MTAP-KO, 2.4 nM.

As for `CO[C@@H]1CCOC[C@H]1N(Cc1ccc(-c2c(F)cccc2F)cn1)C(=O)c1cc2nc(N)c3c(c2[nH]1)COC3` [Example 4, 5-amino-N-((5-(2,6-difluorophenyl)pyridin-2-yl)methyl)-N-((3R,4R)-4-methoxytetrahydro-2H-pyran-3-yl)-6,8-dihydro-1H-furo[3,4-d]pyrrolo[3,2-b]pyridine-2-carboxamide], the IC50 was 99 nM in the experiment with HCT116-mock-RNA-KO and 2.3 nM in the experiment on HCT116-MTAP-KO.

`CC(=O)N1Cc2cc(C(F)(F)F)ccc2[C@@H](N(C)C(=O)c2cc3nc(N)c4c(c3[nH]2)COC4)C1` [Example 99, (R)—N-(2-acetyl-7-(trifluoromethyl)-1,2,3,4-tetrahydroisoquinolin-4-yl)-5-amino-N-methyl-6,8-dihydro-1H-furo[3,4-d]pyrrolo[3,2-b]pyridine-2-carboxamide]: the IC50 is over 10000 nM with HCT116-mock-RNA-KO and 722 nM with HCT116-MTAP-KO.

In the case of `C[C@H]1OC[C@@H](N(C)C(=O)c2cc3nc(N)c4c(c3[nH]2)CO[C@@H]4C)c2ccc(C(F)(F)F)cc21` [Example 83, (R)-5-amino-N,6-dimethyl-N-((1R,4S)-1-methyl-7-(trifluoromethyl)isochroman-4-yl)-6,8-dihydro-1H-furo[3,4-d]pyrrolo[3,2-b]pyridine-2-carboxamide], the concentration for half-maximal inhibition (IC50) with HCT116-mock-RNA-KO came to 556 nM; in the experiment with HCT116-MTAP-KO, 7.2 nM.

Consider `COCC(COC)N(Cc1c(F)cccc1F)C(=O)c1cc2nc(N)c3c(c2[nH]1)COC3` [Example 9, 5-amino-N-(2,6-difluorobenzyl)-N-(1,3-dimethoxypropan-2-yl)-6,8-dihydro-1H-furo[3,4-d]pyrrolo[3,2-b]pyridine-2-carboxamide], for which the IC50 in the experiment on HCT116-mock-RNA-KO worked out at 3440 nM; with HCT116-MTAP-KO, 46 nM.

In the case of `CCN(C(=O)c1cc2nc(N)c3c(c2[nH]1)COC3)[C@H](C)c1ccc(C(F)(F)F)cn1` [Example 115, (R)-5-amino-N-ethyl-N-(1-(5-(trifluoromethyl)pyridin-2-yl)ethyl)-6,8-dihydro-1H-furo[3,4-d]pyrrolo[3,2-b]pyridine-2-carboxamide], the IC50 with HCT116-mock-RNA-KO was 6820 nM; in the experiment with HCT116-MTAP-KO, 43 nM.

In the case of `Nc1nc2cc(C(=O)N(Cc3ccc(-c4c(F)cccc4F)cc3F)[C@@H]3CCOc4cccnc43)[nH]c2c2c1COC2` [Example 19, (R)-5-amino-N-(3,4-dihydro-2H-pyrano[3,2-b]pyridin-4-yl)-N-((2′,3,6′-trifluoro-[1,1′-biphenyl]-4-yl)methyl)-6,8-dihydro-1H-furo[3,4-d]pyrrolo[3,2-b]pyridine-2-carboxamide], the IC50 was 185 nM with HCT116-mock-RNA-KO and under 1.5 nM in the experiment with HCT116-MTAP-KO.

As to `C[C@H](c1ccc(Br)cc1F)N(C)C(=O)c1cc2nc(N)c3c(c2[nH]1)CO[C@@H]3C` [Example 139, (R)-5-amino-N—((R)-1-(4-bromo-2-fluorophenyl)ethyl)-N,6-dimethyl-6,8-dihydro-1H-furo[3,4-d]pyrrolo[3,2-b]pyridine-2-carboxamide], the IC50 stood at 2400 nM with HCT116-mock-RNA-KO and 12 nM with HCT116-MTAP-KO.

As to `CN(C(=O)c1cc2nc(N)c3c(c2[nH]1)COC3)[C@H]1COCc2nc(C(F)(F)F)ccc21` [Example 86, (R)-5-amino-N-methyl-N-(2-(trifluoromethyl)-5,8-dihydro-6H-pyrano[3,4-b]pyridin-5-yl)-6,8-dihydro-1H-furo[3,4-d]pyrrolo[3,2-b]pyridine-2-carboxamide], the IC50 in the experiment with HCT116-mock-RNA-KO is over 10000 nM; in the experiment with HCT116-MTAP-KO, 1900 nM.

On to `C[C@H](c1c(F)cc(C(F)(F)F)cc1F)N(C)C(=O)c1cc2nc(N)c3c(c2[nH]1)COC3` [Example 150, (R)-5-amino-N-(1-(2,6-difluoro-4-(trifluoromethyl)phenyl)ethyl)-N-methyl-6,8-dihydro-1H-furo[3,4-d]pyrrolo[3,2-b]pyridine-2-carboxamide], for which the IC50 with HCT116-mock-RNA-KO was 2790 nM; with HCT116-MTAP-KO it was 32 nM.

For the origin of these results see US20240368177A1, “5-AMINO-6,8-DIHYDRO-1H-FURO[3,4-d]PYRROLO[3,2-b]PYRIDINE-2-CARBOXAMIDE DERIVATIVES AS MTA-COOPERATIVE INHIBITORS OF PRMT5” (BeiGene Switzerland GmbH, priority 2023, published 2024).
